Reference: PubChem BioAssay (NCI)
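Exposure lasted 48 hours, with cells grown in 96-well plates and compounds tested at five concentrations. GI50 = concentration required for 50% inhibition of growth. TGI denotes the concentration required for complete inhibition of growth.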

Key:
Experiment in all cases: growth of human tumour cells (NCI), 48 h
HCC-2998 colon = tested on: HCC-2998 colon
NCI-H23 lung = tested on: NCI-H23 lung
SNB-19 CNS = tested on: SNB-19 CNS
OVCAR-8 ovarian = tested on: OVCAR-8 ovarian
OVCAR-5 ovarian = tested on: OVCAR-5 ovarian
NCI-H522 lung = tested on: NCI-H522 lung
HL-60(TB) leukemia = tested on: HL-60(TB) leukemia
RPMI-8226 leukemia = tested on: RPMI-8226 leukemia
SF-268 CNS = tested on: SF-268 CNS
OVCAR-3 ovarian = tested on: OVCAR-3 ovarian

Row | SMILES | GI50 (HCC-2998 colon) [µM] | TGI (HCC-2998 colon) [µM] | GI50 (NCI-H23 lung) [µM] | TGI (NCI-H23 lung) [µM] | GI50 (SNB-19 CNS) [µM] | TGI (SNB-19 CNS) [µM] | GI50 (OVCAR-8 ovarian) [µM] | TGI (OVCAR-8 ovarian) [µM] | GI50 (OVCAR-5 ovarian) [µM] | TGI (OVCAR-5 ovarian) [µM] | GI50 (NCI-H522 lung) [µM] | TGI (NCI-H522 lung) [µM] | GI50 (HL-60(TB) leukemia) [µM] | TGI (HL-60(TB) leukemia) [µM] | GI50 (RPMI-8226 leukemia) [µM] | TGI (RPMI-8226 leukemia) [µM] | GI50 (SF-268 CNS) [µM] | TGI (SF-268 CNS) [µM] | GI50 (OVCAR-3 ovarian) [µM] | TGI (OVCAR-3 ovarian) [µM]
1 | CCOc1cccc(/C=N/NC(=O)C(=O)Nc2cccc(C(F)(F)F)c2)c1O | 3.28 | > 100 | 4.57 | > 100 | 2.48 | > 100 | 1.29 | > 100 | 5.67 | > 100 | 2.29 | > 100 | 0.89 | 4.45 | 2.08 | > 100 | 1.24 | 97 | 0.407 | > 100
2 | COc1ccc2cc(-c3c(-c4ccncc4)nc(-c4ccc(S(C)(=O)=O)cc4C)n3C)ccc2c1 | 12 | > 25 | 7.99 | > 25 | 9.04 | > 25 | 9.01 | > 25 | 14.7 | > 25 | 4.45 | 19 | 6.54 | 21.7 | 9.89 | > 25 | 11.1 | > 25 | 6.97 | > 23.5
3 | NC(=S)NNc1c([N+](=O)[O-])cnn(-c2ccccc2)c1=O | – | 33 | – | 34.4 | – | 33.9 | – | 31.8 | – | 32.4 | – | 33.6 | – | 19.3 | – | > 100 | – | 40.6 | – | 32.1
4 | Fc1cc2[nH]ncc2c2c3c(c(-c4cn[nH]c4C(F)(F)F)nc12)C1CCC3C1 (stereo not drawn) | 1.38 | 5.57 | 1.27 | 6 | 1.59 | 6.57 | 1.21 | 6.74 | 1.19 | 3.72 | 0.906 | 3.38 | 1.1 | 2.6 | 0.804 | 3.54 | 1.16 | 4.64 | 1.39 | 4.87
5 | O=C1c2cc(Cl)ccc2-c2c1c1ccc([N+](=O)[O-])cc1c(=O)n2CCCBr | 42.6 | > 100 | 8.27 | > 100 | 3.74 | > 100 | 8.35 | > 100 | > 100 | > 100 | 5.02 | 43.4 | 1.26 | 5.71 | 3.66 | 96 | 1.65 | > 100 | 36.6 | > 100
6 | O=C(N/N=C(/CCN1CCCC1)CC(c1ccccc1)c1c(O)c2ccccc2oc1=O)c1ccncc1 (stereo not drawn) | – | > 100 | – | > 100 | – | > 100 | – | > 100 | – | > 100 | – | > 100 | – | 84.8 | – | > 100 | – | > 100 | – | > 100
7 | CN(C)/N=C(/c1nc2ccc(Cl)cc2[nH]c1=O)C(O)c1ccc(C(O)/C(=N\N(C)C)c2nc3ccc(Cl)cc3[nH]c2=O)cc1 (stereo not drawn) | – | > 100 | – | > 100 | – | > 100 | – | > 100 | – | > 100 | – | > 100 | – | > 100 | – | > 100 | – | > 100 | – | > 100
8 | CNCCn1c(=O)c2cc(OC)c(OC)cc2c2ccc3cc4c(cc3c21)OCO4 | 0.167 | 0.968 | 0.112 | 0.556 | 0.116 | 5.61 | 0.169 | 6.37 | 0.195 | 2.6 | 0.0548 | 0.554 | 0.173 | 0.864 | 0.0842 | 0.376 | 0.0888 | 5.52 | 0.162 | 1.25
9 | Cc1ccc(-c2csc(NC(=O)CN3CCN(c4cc5c(cc4F)c(=O)c(C(=O)O)cn5C4CC4)CC3)n2)cc1 | 2.04 | > 100 | 0.39 | 13.3 | 0.87 | 27 | 0.388 | 11.7 | 3.48 | 39.8 | 0.322 | 3.09 | 1.47 | 3.94 | 0.331 | 1.47 | 0.493 | > 100 | 0.457 | 15.7
10 | C/C=C/C=C/C=C/C=C/C(=O)O | – | > 100 | – | > 100 | – | > 100 | – | > 100 | – | > 100 | – | > 100 | – | > 100 | – | > 100 | – | > 100 | – | > 100
11 | CCN(CC)C(=S)Oc1cc2oc(=O)cc(C)c2cc1Cl | – | > 100 | – | > 100 | – | > 100 | – | > 100 | – | > 100 | – | > 100 | – | > 100 | – | > 100 | – | > 100 | – | > 100
12 | NC(=O)c1cc2c3ccccc3ccn2c1-c1ccccc1 | 0.542 | 9.55 | 0.319 | 14.4 | 0.0727 | 22.1 | 0.0937 | 16.4 | 5.6 | 36.7 | 0.0666 | 20.8 | 0.242 | 2.96 | 0.0371 | 2.31 | 0.0759 | 13.4 | 0.0272 | 0.072
13 | COc1ccc(Cn2cc3c(c2)-c2oncc2CC3)cc1 | 5.98 | 27.5 | 5.85 | > 67.5 | 9.05 | > 100 | 9.34 | > 100 | 8.6 | > 100 | 3.24 | 16.7 | 1.72 | 8.26 | 2.97 | > 63.8 | 8.19 | > 100 | 2.61 | 6.51
14 | Cc1nc2sccn2c1-c1csc(Nc2cccc(Cl)c2C)n1 | 10.4 | 40.7 | – | – | 12.6 | > 100 | 5.84 | 47.1 | 24 | > 100 | 3.94 | 26.5 | 3.43 | 19.3 | 3.83 | 33.3 | 11.9 | 74.4 | 5.23 | 32.2
